Structures can show the parent of a compound that is named as a salt. Where two headings read alike, the source gives them in different places.
Tests used:
[1] = target: MCL-1 (Homo sapiens, UniProt Q07820); experiment: Protein-protein interaction assay MCL-1/Noxa BH3 peptide (MCL-1 assay), TR-FRET; format: binding; conditions: MBP-MCL-1 / Noxa BH3-derived peptide, median
How it was run: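 TR-FRET, 665/622 nm emission ratio (excitation 330–350 nm), measured MCL-1/Noxa complex formation. 1 nM MBP-MCL-1, 50 mM Tris/HCl pH 7, 0.1% BGG, 2 mM DTT. Incubation 1 h at 22 °C, then overnight at 4 °C. IC50 by 4-parameter regression, normalized to DMSO (0%) and no-MCL-1 (100%) controls.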

[2] = system: SUDHL5; experiment: Induction of caspase-3/7 activity (Caspase-Glo 3/7), SUDHL5; format: cell-based; conditions: Homo sapiens, SU-DHL-5, 3 h, caspase-3/7 induction, SUDHL5 cells, 3 h treatment; median
How it was run: (§1)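 DLBCL cells treated with compounds for 3 h at 37 °C, then caspase-3/7 activity read by Caspase-Glo 3/7 luminescence. Medium-only background subtracted; EC50 fitted with C0 fixed at 1 and top set to the reference compound's maximal induction.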

[3] = system: SUDHL10; experiment: Induction of caspase-3/7 activity (Caspase-Glo 3/7), SUDHL10; format: cell-based; conditions: caspase-3/7 induction, SUDHL10 cells, 3 h treatment, median
How it was run: as §1

[4] = system: SUDHL5; experiment: Anti-proliferative effect (CellTiter-Glo, 72 h), SUDHL5; format: cell-based; conditions: Homo sapiens, SU-DHL-5, 72 h, SUDHL5 cells, antiproliferation, median, read-out: Antiproli SUDHL5 [M] (median)
How it was run: (§2)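 Cells were treated with compounds for 72 h at 37 °C in a humidified incubator, and viability was measured by CellTiter-Glo luminescence. A parallel day 0 plate, read the same way, gave the time zero baseline.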

[5] = system: SUDHL10; experiment: Anti-proliferative effect (CellTiter-Glo, 72 h), SUDHL10; format: cell-based; conditions: Homo sapiens, SU-DHL10, 72 h, SUDHL10 cells, antiproliferation, median, read-out: Antiproli SUDHL10 [M] (median)
How it was run: as §2

[6] = system: A2780; experiment: Anti-proliferative effect (CellTiter-Glo, 72 h), A2780; format: cell-based; conditions: A2780 cells, median, read-out: IC50 antiproliferation assay A2780 [M] (median)
How it was run: as §2

[7] = system: SUDHL5; experiment: Induction of cytotoxicity (CellTiter-Glo, 5 h), SUDHL5; conditions: Homo sapiens, SU-DHL-5, 5 h
[8] = system: SUDHL10; experiment: Induction of cytotoxicity (CellTiter-Glo, 5 h), SUDHL10
[9] = read-out: Cytotox SUDHL5 [M] (median), SUDHL5 cells, cytotoxicity induction, CellTiter-Glo, 5 h incubation, median
[10] = Homo sapiens, SU-DHL10, 5 h, read-out: Cytotox SUDHL10 [M] (median), SUDHL10 cells, cytotoxicity induction, CellTiter-Glo, 5 h incubation, median
[11] = read-out: Cytotox SUDHL5 [M] (median), SUDHL5 cells, cytotoxicity induction, CellTiter-Glo, 5 h, median
[12] = Homo sapiens, SU-DHL10, 5 h, read-out: Cytotox SUDHL10 [M] (median), SUDHL10 cells, cytotoxicity induction, CellTiter-Glo, 5 h, median

Chain of MCL-1 (Q07820 whole entry): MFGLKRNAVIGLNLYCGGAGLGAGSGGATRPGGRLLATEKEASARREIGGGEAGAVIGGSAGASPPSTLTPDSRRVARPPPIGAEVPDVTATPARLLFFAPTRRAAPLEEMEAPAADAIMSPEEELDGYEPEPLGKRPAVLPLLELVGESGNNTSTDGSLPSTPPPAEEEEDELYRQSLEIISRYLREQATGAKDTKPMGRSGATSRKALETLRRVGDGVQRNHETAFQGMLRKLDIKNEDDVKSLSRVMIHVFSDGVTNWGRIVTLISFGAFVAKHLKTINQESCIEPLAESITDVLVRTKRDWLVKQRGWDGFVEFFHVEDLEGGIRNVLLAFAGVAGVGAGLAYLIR

Structure (SMILES)	IC50 [1]	EC50 [2]	EC50 ([3]; Homo sapiens, SU-DHL10, 3 h)	IC50 ([4]; 72 h incubation)	IC50 ([5]; 72 h incubation)	IC50 ([6]; Homo sapiens, A2780, 72 h)	IC50 [7, 9]	IC50 [8, 10]	IC50 [6]	IC50 ([4]; 72 h)	IC50 ([5]; 72 h)	IC50 [7, 11]	IC50 [8, 12]	EC50 [3]	IC50 ([8]; read-out: Cytotox SUDHL10 [M] (median), SUDHL10 cells, cytotoxicity induction, CellTiter-Glo, 5 h, median)
Cn1ccnc1COCc1nn(C)c2c1-c1cccc3c(CCCOc4cccc5ccccc45)c(C(=O)O)n(c13)CCCCOC2 (racemic) [Example 231, (rac)-1-methyl-3-{[(1-methyl-1H-imidazol-2-yl)methoxyl]methyl}-7-[3-(naphthalen-1-yloxy)propyl]-1,10,11,12,13,15-hexahydropyrazolo[4′,3′:9,10][1,6]oxazacycloundecino[8,7,6-hi]indole-8-carboxylic Acid]	0.0262 µM	17.3 µM	16.1 µM	8.1e-06 M	1.14e-05 M	> 3.3e-05 M	1.33e-05 M	1.6e-05 M	–	–	–	–	–	–	–
Cn1nc2c(c1OC(F)F)-c1cccc3c(CCCOc4cccc5ccccc45)c(C(=O)O)n(c13)CCCCOC2 (racemic) [Example 234, (rac)-3-(difluoromethoxy)-2-methyl-7-[3-(naphthalen-1-yloxy)propyl]-2,10,11,12,13,15-hexahydropyrazolo[4′,3′:9,10][1,6]oxazacycloundecino[8,7,6-hi]indole-8-carboxylic Acid]	0.0139 µM	30.1 µM	31.6 µM	3.15e-05 M	1.98e-05 M	3.04e-05 M	2.71e-05 M	> 3.3e-05 M	–	–	–	–	–	–	–
Cc1nn(CCN(C)C)c2c1-c1cccc3c(CCCOc4cccc5ccccc45)c(C(=O)O)n(c13)CCCCOC2 (racemic) [Example 244, (rac)-1-[2-(dimethylamino)ethyl]-3-methyl-7-[3-(naphthalen-1-yloxy)propyl]-1,10,11,12,13,15-hexahydropyrazolo[4′,3′:9,10][1,6]oxazacycloundecino[8,7,6-hi]indole-8-carboxylic Acid Trifluoroacetic Acid Salt]	0.00664 µM	2.69 µM	6.42 µM	5.23e-06 M	5e-06 M	1.84e-05 M	3.2e-06 M	6.6e-06 M	–	–	–	–	–	–	–
O=C(O)c1c(CCCOc2cccc3ccccc23)c2cccc3c2n1CCCCOCc1nn2c(c1-3)OCCC2 (racemic) [Example 247, (rac)-1-[3-(naphthalen-1-yloxy)propyl]-4,5,6,7,13,14-hexahydro-9H,12H-[1,3]oxazino[3″,2″: 1′,5′]pyrazolo[4′,3′:9,10][1,6]oxazacycloundecino[8,7,6-hi]indole-2-carboxylic Acid]	0.00615 µM	5.21 µM	17.3 µM	5.26e-06 M	9.3e-06 M	3.04e-05 M	6.79e-06 M	1.9e-05 M	> 3.3e-05 M	–	–	–	–	–	–
O=C(O)c1c(CCCOc2cccc3ccccc23)c2cccc3c2n1CCCCOCc1nn2c(c1-3)COCC2 (racemic) [Example 250, (rac)-1-[3-(naphthalen-1-yloxy)propyl]-4,5,6,7,12,13-hexahydro-9H,15H-[1,4]oxazino[4″,3″:1′,5′]pyrazolo[4′,3′:9,10][1,6]oxazacycloundecino[8,7,6-hi]indole-2-carboxylic Acid]	0.00788 µM	10.9 µM	22 µM	9.3e-06 M	9.7e-06 M	2.29e-05 M	1.33e-05 M	2.18e-05 M	> 3.3e-05 M	–	–	–	–	–	–
Cc1ccc2c(C(C)CCOc3cccc4ccccc34)c(C(=O)O)n3c2c1-c1c(C)nn(C)c1COCCCC3 (racemic) [Example 256, 1,3,4-trimethyl-7-[4-(naphthalen-1-yloxy)butan-2-yl]-1,10,11,12,13,15-hexahydropyrazolo[4′,3′:9,10][1,6]oxazacycloundecino[8,7,6-hi]indole-8-carboxylic Acid]	0.0425 µM	> 33 µM	> 33 µM	1.5e-05 M	9.2e-06 M	2.03e-05 M	2.29e-05 M	> 3.3e-05 M	–	–	–	–	–	–	–
CCc1nn(C)c2c1-c1c(C)ccc3c(C(C)CCOc4cccc5cc(F)ccc45)c(C(=O)O)n(c13)CCCCOC2 (racemic) [Example 261, 3-ethyl-7-{4-[(6-fluoronaphthalen-1-yl)oxy]butan-2-yl}-1,4-dimethyl-1,10,11,12,13,15-hexahydropyrazolo[4′,3′:9,10][1,6]oxazacycloundecino[8,7,6-hi]indole-8-carboxylic Acid]	0.00373 µM	1.77 µM	3.52 µM	1.17e-06 M	4.66e-06 M	1.85e-05 M	2.02e-06 M	3.8e-06 M	–	–	–	–	–	–	–
CCc1nn(C)c2c1-c1c(C)ccc3c(CCCOc4cccc5cc(F)ccc45)c(C(=O)O)n(c13)CCCCOC2 (racemic) [Example 266, (rac)-3-ethyl-7-{3-[(6-fluoronaphthalen-1-yl)oxy]propyl}1,4-dimethyl-1,10,11,12,13,15-hexahydropyrazolo[4′3′:9,10][1,6]oxazacycloundecino[8,7,6-hi]indole-8-carboxylic Acid]	0.00259 µM	1.79 µM	4.47 µM	9.96e-07 M	2.83e-06 M	2.83e-05 M	1.76e-06 M	4.99e-06 M	–	–	–	–	–	–	–
CCc1nn(C)c2c1-c1c(C)ccc3c(CCCOc4cc(C)c(Cl)c(C)c4)c(C(=O)O)n(c13)CCCCOC2 (racemic) [Example 269, (rac)-1(3-(4-chloro-3,5-dimethylphenoxy)propyl)-12-ethyl-10,13-dimethyl-4,5,6,7,9,10-hexahydropyrazolo[4′,3′:9,10][1]oxa[6]azacycloundecino[8,7,6-hi]indole-2-carboxylic Acid]	0.00774 µM	4.83 µM	13.2 µM	2.26e-06 M	7.27e-06 M	2.93e-05 M	4.98e-06 M	1.47e-05 M	–	–	–	–	–	–	–
CCc1nn(C)c2c1-c1c(C)ccc3c(CCCOc4cccc5c4CCCC5)c(C(=O)O)n(c13)CCCCOC2 (racemic) [Example 270, (rac)-12-ethyl-10,13-dimethyl-1-(3-((5,6,7,8-tetrahydronaphthalen-1-yl)oxy)propyl)-4,5,6,7,9,10-hexahydropyrazolo[4′,3′:9,10][1]oxa[6]azacycloundecino[8,7,6-hi]indole-2-carboxylic Acid]	0.00578 µM	6.18 µM	19.3 µM	5.37e-06 M	1.2e-05 M	> 3.3e-05 M	5.39e-06 M	2.19e-05 M	–	–	–	–	–	–	–
COc1ccc(OCc2nn(C)c3c2-c2cccc4c(CCCOc5cccc6ccccc56)c(C(=O)O)n(c24)CCCCOC3)cc1 (racemic) [Example 319, (rac)-3-[(4-methoxyphenoxy)methyl]-1-methyl-7-[3-(naphthalen-1-yloxy)propyl]-1,10,11,12,13,15-hexahydropyrazolo[4′,3′:9,10][1,6]oxazacycloundecino[8,7,6-hi]indole-8-carboxylic Acid]	0.0371 µM	18.4 µM	30.7 µM	–	–	1.26e-05 M	–	–	–	1.21e-05 M	5.93e-06 M	2.11e-05 M	2.83e-05 M	–	–
CN1CCCn2c(C(=O)O)c(CCCOc3cccc4ccccc34)c3cccc(c32)-c2c(nn(C)c2C(F)(F)F)C1 (racemic) [Example 324, (rac)-7,10-dimethyl-1-[3-(naphthalen-1-yloxy)propyl]-11-(trifluoromethyl)-4,5,6,7,8,10-hexahydropyrazolo[3′,4′:7,8][1,5]diazecino[9,10,1-hi]indole-2-carboxylic Acid]	0.027 µM	> 33 µM	32.1 µM	–	–	2.46e-05 M	–	–	–	1.59e-05 M	1.62e-05 M	2.92e-05 M	2.68e-05 M	> 33 µM	> 3.3e-05 M
